Measured values published in PMC9243336, “Santalol Isomers Inhibit Transthyretin Amyloidogenesis and Associated Pathologies in Caenorhabditis elegans” (Frontiers in Pharmacology, 2022).

Assays:
[1] = target: T1, Transthyretin (TTR, prealbumin), wild type (Homo sapiens, UniProt P02766); experiment: acid-induced (pH […] h) aggregation turbidity; urea denaturation by Trp fluorescence; format: biochemical
T1 construct: homotetramer; prealbumin from human plasma

[2] = target: Transthyretin (TTR) V30M (Homo sapiens, UniProt P02766, V50M); experiment: as above; format: biochemical

EC50 [1] | EC50 [2] | Structure (SMILES)
31.1 ± 2.4 µM | 34.5 ± 2.8 µM | C=C1[C@@H]2CC[C@@H](C2)[C@@]1(C)CC/C=C(/C)CO [β-santalol]
36.7 ± 1.2 µM | 44.3 ± 3.5 µM | C/C(=C/CC[C@@]1(C)C2C[C@@H]3[C@H](C2)C31C)CO [α-santalol]
